Like-named read-outs stand apart in the source and are kept apart here.
T1: soluble human CD74 (human, UniProt P04233-2 73-232, limits assumed)
T1 construct: CD74' flowed over as analyte; also called human CD74 protein
T1 sequence (looked up): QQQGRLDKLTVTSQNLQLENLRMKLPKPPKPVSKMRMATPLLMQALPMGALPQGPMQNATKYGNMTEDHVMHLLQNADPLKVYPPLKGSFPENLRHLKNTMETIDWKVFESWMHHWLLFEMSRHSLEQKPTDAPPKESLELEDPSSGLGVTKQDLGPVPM

B1: milatuzumab (antibody, V domains shown)
VH: QVQLQQSGSELKKPGASVKVSCKASGYTFTNYGVNWIKQAPGQGLQWMGWINPNTGEPTFDDDFKGRFAFSLDTSVSTAYLQISSLKADDTAVYFCSRSRGKNEAWFAYWGQGTLVTVSS
VL: DIQLTQSPLSLPVTLGQPASISCRSSQSLVHRNGNTYLHWFQQRPGQSPRLLIYTVSNRFSGVPDRFSGSGSGTDFTLKISRVEAEDVGVYFCSQSSHVPPTFGAGTRLEIK
notes: also called hLL1; WT IgG
B2: Mil_HCx hzVk1b (antibody, V domains shown)
VH: QVQLQQSGSELKKPGASVKVSCKASGYTFTNYGVNWIKQAPGQGLQWMGWINPNTGEPTFDDDFKGRFAFSLDTSVSTAYLQISSLKADDTAVYFCSRSRGKNEAWFAYWGQGTLVTVSS
VL: DVVMTQSPLSLPVTLGQPASISCRSSQSLVHRNGNTYLHWYQQRPGQSPRLLIYTVSNRFSGVPDRFSGSGSGTDFTLKISRVEAEDVGVYFCSQSSHVPPTFGQGTKLEIK
notes: Tested as IgG; also called hLL1 heavy chain with hzLL1-Vk1b light chain
B3: VHmil x VK1bNQ (antibody, V domains shown)
VH: QVQLQQSGSELKKPGASVKVSCKASGYTFTNYGVNWIKQAPGQGLQWMGWINPNTGEPTFDDDFKGRFAFSLDTSVSTAYLQISSLKADDTAVYFCSRSRGKNEAWFAYWGQGTLVTVSS
VL: DVVMTQSPLSLPVTLGQPASISCRSSQSLVHRNQNTYLHWYQQRPGQSPRLLIYTVSNRFSGVPDRFSGSGSGTDFTLKISRVEAEDVGVYFCSQSSHVPPTFGQGTKLEIK
notes: Tested as IgG; also called VHmil × VK1bNQ; hLL1 heavy chain with hzLL1-Vk1b (NQ) light chain
B4: Hcmil x LCmil_NQ (antibody, V domains shown)
VH: QVQLQQSGSELKKPGASVKVSCKASGYTFTNYGVNWIKQAPGQGLQWMGWINPNTGEPTFDDDFKGRFAFSLDTSVSTAYLQISSLKADDTAVYFCSRSRGKNEAWFAYWGQGTLVTVSS
VL: DIQLTQSPLSLPVTLGQPASISCRSSQSLVHRNQNTYLHWFQQRPGQSPRLLIYTVSNRFSGVPDRFSGSGSGTDFTLKISRVEAEDVGVYFCSQSSHVPPTFGAGTRLEIK
notes: Tested as IgG; also called hLL1 heavy chain with hLL1 (NQ) light chain
B5: VHmil x VK1aNQ (antibody, V domains shown)
VH: QVQLQQSGSELKKPGASVKVSCKASGYTFTNYGVNWIKQAPGQGLQWMGWINPNTGEPTFDDDFKGRFAFSLDTSVSTAYLQISSLKADDTAVYFCSRSRGKNEAWFAYWGQGTLVTVSS
VL: DIVMTQTPLSLPVTPGEPASISCRSSQSLVHRNQNTYLHWYLQKPGQSPQLLIYTVSNRFSGVPDRFSGSGSGTDFTLKISRVEAEDVGVYFCSQSSHVPPTFGQGTKLEIK
notes: Tested as IgG; also called VHmil × VK1aNQ; hLL1 heavy chain with hzLL1-Vk1a (NQ) light chain
B6: Mil_HCx hzVk1a (antibody, V domains shown)
VH: QVQLQQSGSELKKPGASVKVSCKASGYTFTNYGVNWIKQAPGQGLQWMGWINPNTGEPTFDDDFKGRFAFSLDTSVSTAYLQISSLKADDTAVYFCSRSRGKNEAWFAYWGQGTLVTVSS
VL: DIVMTQTPLSLPVTPGEPASISCRSSQSLVHRNGNTYLHWYLQKPGQSPQLLIYTVSNRFSGVPDRFSGSGSGTDFTLKISRVEAEDVGVYFCSQSSHVPPTFGQGTKLEIK
notes: Tested as IgG; also called hLL1 heavy chain with hzLL1-Vk1a light chain

Columns and labels:
EOL-1 = type: cell-based
Method: (§1) Cell lines were cultured in media that is optimal for their growth at 5% CO2, 37° C. in a tissue culture incubator. Prior to seeding for the proliferation assay, the cells were split at least 2 days before the assay to ensure optimal growth density. […] Cell viability and cell density were determined using a cell counter (Vi-Cell XR Cell Viability Analyzer, Beckman Coulter). […] Cells were seeded at a density of 1,000 cells per well in 45 μL of standard growth media. Plates were incubated at 5% CO2, 37° C. overnight in a tissue culture incubator. […] Each drug concentration was tested in quadruplets. […] Plates were incubated at room temperature for 10 minutes to stabilize luminescent signals prior to reading using a luminescence reader (EnVision Multilabel Plate Reader, PerkinElmer). To evaluate the effect of the drug treatments, luminescent counts from wells containing untreated cells (100% viability) were used to normalize treated samples.

MONO-MAC-1 = type: cell-based; settings: CD74 ADC with the named linker-payload, 5 days
Method: as §1

NOMO-1 = type: cell-based
Method: as §1

soluble cyno CD74 (cyno) = assay: SPR, Biacore 8K; IgG captured by anti-IgG Fc, soluble CD74 as analyte; 1:1 model, apparent kinetics
soluble human CD74 = biological target: T1, soluble human CD74; assay: as above
From the text: Double reference subtraction was completed to generate the final data.

[1] = CD74 ADC with the named linker-payload, 5 days
[2] = CD74 ADC with the named linker-payload, 5 days, read-out: EOL-1 IC50
[3] = CD74 ADC with the named linker-payload, 5 days, read-out: NOMO-1 IC50

soluble cyno CD74 (cyno), sequence (P04233 other isoform, or with tags, fused parts or gaps): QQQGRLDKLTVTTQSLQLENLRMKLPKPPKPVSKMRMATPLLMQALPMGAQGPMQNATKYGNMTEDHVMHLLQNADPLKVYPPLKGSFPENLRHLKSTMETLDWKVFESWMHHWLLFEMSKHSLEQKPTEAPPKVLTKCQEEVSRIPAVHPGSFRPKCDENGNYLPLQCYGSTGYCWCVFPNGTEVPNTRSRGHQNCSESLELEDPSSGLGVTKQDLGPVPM

Row | Molecule | IC50 (EOL-1) [nM] | EOL-1 Amax (EOL-1; [1]) | IC50 (MONO-MAC-1) [nM] | MONO-MAC-1 Amax (MONO-MAC-1) | IC50 (NOMO-1) [nM] | NOMO-1 Amax (NOMO-1; [1]) | IC50 (EOL-1; [2]) [nM] | IC50 (NOMO-1; [3]) [nM] | Kd (soluble cyno CD74 (cyno)) [nM] | koff (soluble cyno CD74 (cyno)) [s⁻¹] | kon (soluble cyno CD74 (cyno)) [M⁻¹ s⁻¹] | Kd (soluble human CD74) [nM] | koff (soluble human CD74) [s⁻¹] | kon (soluble human CD74) [M⁻¹ s⁻¹]
1 | COCCOCCOCCOCCOCCOCCOCCOCCOCCOCCOCCOCCOCCOCCOCCOCCOCCOCCOCCOCCOCCOCCOCCOCCn1cc(COCc2cc(NC(=O)[C@H](CCCNC(N)=O)NC(=O)[C@@H](NC(=O)CCOCCN3C(=O)C=CC3=O)C(C)C)ccc2C[N+]2(C)CCN(CCOc3ccc(-c4c(-c5ccc(F)cc5)sc5ncnc(O[C@H](Cc6ccccc6OCc6ccnc(-c7ccccc7OC)n6)C(=O)O)c45)c(C)c3Cl)CC2)nn1 [L5-P1] | 1.02 | 75.06 | 7.95 | 84.9 | 2.22 | 55.58 | – | – | – | – | – | – | – | –
2 | COCCOCCOCCOCCOCCOCCOCCOCCOCCOCCOCCOCCOCCOCCOCCOCCOCCOCCOCCOCCOCCOCCOCCOCCC(=O)N(C)Cc1cc(NC(=O)[C@H](CCCNC(N)=O)NC(=O)[C@@H](NC(=O)CCOCCN2C(=O)C=CC2=O)C(C)C)ccc1C[N+]1(C)CCN(CCOc2ccc(-c3c(-c4ccc(F)cc4)sc4ncnc(O[C@H](Cc5ccccc5OCc5ccnc(-c6ccccc6OC)n5)C(=O)O)c34)c(C)c2Cl)CC1 [L30-P1] | 0.251 | 197.6 | 5.45 | 86.78 | 1.62 | 78.95 | – | – | – | – | – | – | – | –
3 | COCCOCCOCCOCCOCCOCCOCCOCCOCCOCCOCCOCCOCCOCCOCCOCCC(=O)N(C)Cc1cc(NC(=O)[C@H](CCCNC(N)=O)NC(=O)[C@@H](NC(=O)CCOCCN2C(=O)C=CC2=O)C(C)C)ccc1C[N+]1(C)CCN(CCOc2ccc(-c3c(-c4ccc(F)cc4)sc4ncnc(O[C@H](Cc5ccccc5OCc5ccnc(-c6ccccc6OC)n5)C(=O)O)c34)c(C)c2Cl)CC1 [L31-P1] | 0.466 | 83.98 | 3.96 | 110.3 | 1.2 | 73.4 | – | – | – | – | – | – | – | –
4 | COCCOCCOCCOCCOCCOCCOCCOCCOCCOCCOCCOCCC(=O)N(C)Cc1cc(NC(=O)[C@H](CCCNC(N)=O)NC(=O)[C@@H](NC(=O)CCOCCN2C(=O)C=CC2=O)C(C)C)ccc1C[N+]1(C)CCN(CCOc2ccc(-c3c(-c4ccc(F)cc4)sc4ncnc(O[C@H](Cc5ccccc5OCc5ccnc(-c6ccccc6OC)n5)C(=O)O)c34)c(C)c2Cl)CC1 [L32-P1] | – | 125 | 6.72 | 97.57 | – | 62.58 | 0.16 | 1.5 | – | – | – | – | – | –
5 | COc1ccccc1-c1nccc(COc2ccccc2C[C@@H](Oc2ncnc3sc(-c4ccc(F)cc4)c(-c4ccc(OCCN5CC[N+](C)(Cc6ccc(NC(=O)[C@H](CCCNC(N)=O)NC(=O)[C@@H](NC(=O)CCOCCN7C(=O)C=CC7=O)C(C)C)cc6COCc6cn(CCOCCOCCOCCOCCOCCOCCOCCOCCOCCOCCOCCOCCC(=O)O)nn6)CC5)c(Cl)c4C)c23)C(=O)O)n1 [L33-P1] | 0.62 | 66.96 | 6.72 | 89.18 | 2.58 | 58.95 | – | – | – | – | – | – | – | –
6 | COCCOCCOCCOCCOCCOCCOCCOCCOCCOCCOCCOCCOCCOCCOCCOCCn1cc(COCc2cc(NC(=O)[C@H](CCCNC(N)=O)NC(=O)[C@@H](NC(=O)CCOCCN3C(=O)C=CC3=O)C(C)C)ccc2C[N+]2(C)CCN(CCOc3ccc(-c4c(-c5ccc(F)cc5)sc5ncnc(O[C@H](Cc6ccccc6OCc6ccnc(-c7ccccc7OC)n6)C(=O)O)c45)c(C)c3Cl)CC2)nn1 [L34-P1] | – | 70.92 | 6.28 | 104.4 | – | 66.95 | 0.736 | 2.96 | – | – | – | – | – | –
7 | COc1ccccc1-c1nccc(COc2ccccc2C[C@@H](Oc2ncnc3sc(-c4ccc(F)cc4)c(-c4ccc(OCCN5CC[N+](C)(Cc6ccc(NC(=O)[C@H](CCCNC(N)=O)NC(=O)[C@@H](NC(=O)CCOCCN7C(=O)C=CC7=O)C(C)C)cc6CN(C)C(=O)C[C@H](NC(=O)CS(=O)(=O)O)C(=O)O)CC5)c(Cl)c4C)c23)C(=O)O)n1 [L79-P1, 4-(2-(4-(4-((R)-1-carboxy-2-(2-((2-(2-methoxyphenyl)pyrimidin-4-yl)methoxy)phenyl)ethoxy)-6-(4-fluorophenyl)thieno[2,3-d]pyrimidin-5-yl)-2-chloro-3-methylphenoxy)ethyl)-1-(2-(((S)-3-carboxy-N-methyl-3-(2-sulfoacetamido)propanamido)methyl)-4-((S)-2-((S)-2-(3-(2-(2,5-dioxo-2,5-dihydro-1H-pyrrol-1-yl)ethoxy)propanamido)-3-methylbutanamido)-5-ureidopentanamido)benzyl)-1-methylpiperazin-1-ium] | 0.492 | 91.3 | – | – | 3.14 | 56.07 | – | – | – | – | – | – | – | –
8 | COc1ccccc1-c1nccc(COc2ccccc2C[C@@H](Oc2ncnc3sc(-c4ccc(F)cc4)c(-c4ccc(OCCN5CC[N+](C)(Cc6ccc(NC(=O)[C@H](CCCNC(N)=O)NC(=O)[C@@H](NC(=O)CCOCCN7C(=O)C=CC7=O)C(C)C)cc6CN(C)C(=O)[C@H](N)CS(=O)(=O)O)CC5)c(Cl)c4C)c23)C(=O)O)n1 [L86-P1] | 0.721 | 105.5 | – | – | 7.47 | 74.52 | – | – | – | – | – | – | – | –
9 | B1 | – | – | – | – | – | – | – | – | 16 | 0.00088 | 56000 | 4.9 | 0.00051 | 100000
10 | B2 | – | – | – | – | – | – | – | – | 5.1 | 0.00058 | 110000 | 0.72 | 0.00017 | 230000
11 | B3 | – | – | – | – | – | – | – | – | 5.3 | 0.00058 | 110000 | 0.76 | 0.00016 | 220000
12 | B4 | – | – | – | – | – | – | – | – | 26 | 0.00077 | 30000 | 3.4 | 0.00033 | 96000
13 | B5 | – | – | – | – | – | – | – | – | 5.9 | 0.00062 | 100000 | 0.91 | 0.00018 | 200000
14 | B6 | – | – | – | – | – | – | – | – | 5.7 | 0.00058 | 100000 | 0.85 | 0.00018 | 210000

— patent US20230081720A1, “MCL-1 INHIBITOR ANTIBODY-DRUG CONJUGATES AND METHODS OF USE” (NOVARTIS AG, priority 2019, published 2023)
